In ChEMBL document CHEMBL5291721, “A preclinical secondary pharmacology resource illuminates target-adverse drug reaction associations of marketed drugs” (Nat Commun, 2023):

How the values were obtained:
[1] = biological target: Beta-1 adrenergic receptor (Homo sapiens, UniProt P08588); type: functional
[2] = biological target: T1, Cholecystokinin receptor type A (Homo sapiens, UniProt P32238)
T1 sequence (P32238 whole entry): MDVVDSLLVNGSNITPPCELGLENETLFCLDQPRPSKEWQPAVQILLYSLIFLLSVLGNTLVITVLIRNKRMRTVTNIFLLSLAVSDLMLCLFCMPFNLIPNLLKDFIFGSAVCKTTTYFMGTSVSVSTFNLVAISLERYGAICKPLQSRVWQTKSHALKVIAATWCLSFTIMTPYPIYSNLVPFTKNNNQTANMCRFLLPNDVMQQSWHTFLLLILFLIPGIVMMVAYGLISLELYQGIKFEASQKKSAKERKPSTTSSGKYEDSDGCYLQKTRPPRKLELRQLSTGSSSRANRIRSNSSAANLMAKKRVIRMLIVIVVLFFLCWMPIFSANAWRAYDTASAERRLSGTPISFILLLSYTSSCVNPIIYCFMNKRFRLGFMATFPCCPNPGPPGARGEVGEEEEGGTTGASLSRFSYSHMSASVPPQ

[3] = biological target: T2, Muscarinic acetylcholine receptor M2 (Homo sapiens, UniProt P08172); type: functional, cell-based
T2 sequence (P08172 whole entry): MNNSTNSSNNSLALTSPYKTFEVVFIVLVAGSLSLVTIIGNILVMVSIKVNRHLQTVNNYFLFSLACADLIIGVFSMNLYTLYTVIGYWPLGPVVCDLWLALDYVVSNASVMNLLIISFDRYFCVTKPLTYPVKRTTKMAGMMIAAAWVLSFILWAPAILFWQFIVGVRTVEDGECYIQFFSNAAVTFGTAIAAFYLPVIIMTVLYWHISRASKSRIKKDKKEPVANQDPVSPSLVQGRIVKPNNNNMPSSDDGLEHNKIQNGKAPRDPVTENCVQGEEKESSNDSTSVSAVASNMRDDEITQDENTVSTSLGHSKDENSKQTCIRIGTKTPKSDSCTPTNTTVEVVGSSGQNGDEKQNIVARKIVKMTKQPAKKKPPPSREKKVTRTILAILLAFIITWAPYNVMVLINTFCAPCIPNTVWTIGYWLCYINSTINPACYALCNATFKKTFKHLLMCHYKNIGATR

Cannabinoid receptor 1 = Cannabinoid receptor 1 (Homo sapiens, UniProt P21554); type: functional, cell-based
Chain of Cannabinoid receptor 1 (P21554 whole entry): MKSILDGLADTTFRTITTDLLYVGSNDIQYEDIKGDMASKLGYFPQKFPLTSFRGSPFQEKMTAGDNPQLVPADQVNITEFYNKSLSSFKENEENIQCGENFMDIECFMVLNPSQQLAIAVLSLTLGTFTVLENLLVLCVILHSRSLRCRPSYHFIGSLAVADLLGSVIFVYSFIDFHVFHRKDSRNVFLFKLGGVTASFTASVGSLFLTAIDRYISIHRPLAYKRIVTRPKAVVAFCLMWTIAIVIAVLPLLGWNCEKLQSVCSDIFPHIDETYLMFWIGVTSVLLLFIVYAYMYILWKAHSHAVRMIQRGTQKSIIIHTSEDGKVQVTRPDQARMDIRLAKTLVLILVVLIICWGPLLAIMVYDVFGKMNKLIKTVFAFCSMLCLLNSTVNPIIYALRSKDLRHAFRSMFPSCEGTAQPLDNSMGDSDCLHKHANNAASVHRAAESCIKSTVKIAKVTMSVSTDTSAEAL

[4] = biological target: 5-hydroxytryptamine receptor 2B (Homo sapiens, UniProt P41595); type: functional, cell-based
Chain of 5-hydroxytryptamine receptor 2B (P41595 whole entry): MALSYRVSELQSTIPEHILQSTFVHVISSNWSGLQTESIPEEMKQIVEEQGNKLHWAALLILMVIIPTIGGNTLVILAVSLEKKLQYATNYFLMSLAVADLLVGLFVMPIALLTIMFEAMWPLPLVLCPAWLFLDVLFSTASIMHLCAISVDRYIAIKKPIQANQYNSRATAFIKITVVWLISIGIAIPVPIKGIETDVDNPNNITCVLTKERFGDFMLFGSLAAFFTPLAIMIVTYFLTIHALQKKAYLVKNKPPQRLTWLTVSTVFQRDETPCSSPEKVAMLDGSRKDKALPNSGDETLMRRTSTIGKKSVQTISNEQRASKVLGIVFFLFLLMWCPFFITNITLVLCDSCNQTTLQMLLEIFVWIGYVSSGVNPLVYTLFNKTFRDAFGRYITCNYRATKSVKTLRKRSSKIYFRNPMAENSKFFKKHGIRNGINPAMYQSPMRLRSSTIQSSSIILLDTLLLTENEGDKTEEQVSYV

Motilin receptor = Motilin receptor (Homo sapiens, UniProt O43193)
Chain of Motilin receptor (O43193 whole entry): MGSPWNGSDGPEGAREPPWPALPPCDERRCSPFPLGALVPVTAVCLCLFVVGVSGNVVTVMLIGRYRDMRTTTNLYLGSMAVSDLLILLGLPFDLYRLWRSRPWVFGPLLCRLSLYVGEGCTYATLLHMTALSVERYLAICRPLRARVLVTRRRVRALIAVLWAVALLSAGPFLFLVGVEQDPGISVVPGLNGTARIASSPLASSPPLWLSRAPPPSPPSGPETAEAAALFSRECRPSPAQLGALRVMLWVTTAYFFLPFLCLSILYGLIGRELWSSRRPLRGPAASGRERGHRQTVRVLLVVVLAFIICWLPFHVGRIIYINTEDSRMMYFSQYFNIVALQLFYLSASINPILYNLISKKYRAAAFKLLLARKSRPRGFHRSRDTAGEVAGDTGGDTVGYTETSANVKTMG

[5] = biological target: T3, Neuropeptide Y receptor type 1 (Homo sapiens, UniProt P25929)
T3 sequence (P25929 whole entry): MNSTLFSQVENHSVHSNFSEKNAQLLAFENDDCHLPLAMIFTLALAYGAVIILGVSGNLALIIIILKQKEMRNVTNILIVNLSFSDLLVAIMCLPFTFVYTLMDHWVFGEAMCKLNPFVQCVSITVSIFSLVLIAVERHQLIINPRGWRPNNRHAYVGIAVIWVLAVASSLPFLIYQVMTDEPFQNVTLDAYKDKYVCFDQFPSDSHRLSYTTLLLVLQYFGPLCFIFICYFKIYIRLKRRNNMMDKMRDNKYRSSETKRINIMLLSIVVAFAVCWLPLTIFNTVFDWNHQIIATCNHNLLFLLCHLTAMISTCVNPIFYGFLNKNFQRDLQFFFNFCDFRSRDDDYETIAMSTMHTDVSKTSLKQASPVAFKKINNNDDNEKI

Progesterone receptor = biological target: T4, Progesterone receptor (Homo sapiens, UniProt P06401); type: functional
T4 sequence (P06401 whole entry): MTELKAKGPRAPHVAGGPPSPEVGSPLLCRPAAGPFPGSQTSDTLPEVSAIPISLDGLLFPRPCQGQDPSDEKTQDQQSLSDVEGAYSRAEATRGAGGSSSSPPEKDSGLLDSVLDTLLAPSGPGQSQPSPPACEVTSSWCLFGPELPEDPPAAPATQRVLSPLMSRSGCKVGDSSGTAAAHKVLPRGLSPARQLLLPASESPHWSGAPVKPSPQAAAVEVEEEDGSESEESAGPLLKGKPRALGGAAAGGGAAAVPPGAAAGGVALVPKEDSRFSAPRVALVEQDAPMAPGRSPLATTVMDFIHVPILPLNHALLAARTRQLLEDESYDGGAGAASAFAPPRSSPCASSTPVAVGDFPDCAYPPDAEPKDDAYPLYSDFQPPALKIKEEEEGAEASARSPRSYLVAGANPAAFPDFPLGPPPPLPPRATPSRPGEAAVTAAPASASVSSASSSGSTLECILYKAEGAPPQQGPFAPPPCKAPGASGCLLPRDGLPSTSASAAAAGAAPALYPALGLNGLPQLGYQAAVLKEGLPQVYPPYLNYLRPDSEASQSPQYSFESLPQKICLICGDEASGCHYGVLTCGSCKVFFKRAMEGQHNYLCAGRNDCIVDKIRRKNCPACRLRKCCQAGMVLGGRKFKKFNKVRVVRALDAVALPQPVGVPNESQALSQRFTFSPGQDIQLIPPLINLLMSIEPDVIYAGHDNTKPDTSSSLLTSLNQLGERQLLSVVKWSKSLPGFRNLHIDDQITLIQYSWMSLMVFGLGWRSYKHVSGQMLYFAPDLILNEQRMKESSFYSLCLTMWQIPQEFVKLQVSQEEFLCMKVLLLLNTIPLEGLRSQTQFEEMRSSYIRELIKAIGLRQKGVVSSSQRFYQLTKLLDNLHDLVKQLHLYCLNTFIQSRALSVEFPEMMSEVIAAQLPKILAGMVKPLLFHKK

[6] = biological target: T5, Amine oxidase [flavin-containing] A (Homo sapiens, UniProt P21397); type: functional
T5 sequence (P21397 whole entry): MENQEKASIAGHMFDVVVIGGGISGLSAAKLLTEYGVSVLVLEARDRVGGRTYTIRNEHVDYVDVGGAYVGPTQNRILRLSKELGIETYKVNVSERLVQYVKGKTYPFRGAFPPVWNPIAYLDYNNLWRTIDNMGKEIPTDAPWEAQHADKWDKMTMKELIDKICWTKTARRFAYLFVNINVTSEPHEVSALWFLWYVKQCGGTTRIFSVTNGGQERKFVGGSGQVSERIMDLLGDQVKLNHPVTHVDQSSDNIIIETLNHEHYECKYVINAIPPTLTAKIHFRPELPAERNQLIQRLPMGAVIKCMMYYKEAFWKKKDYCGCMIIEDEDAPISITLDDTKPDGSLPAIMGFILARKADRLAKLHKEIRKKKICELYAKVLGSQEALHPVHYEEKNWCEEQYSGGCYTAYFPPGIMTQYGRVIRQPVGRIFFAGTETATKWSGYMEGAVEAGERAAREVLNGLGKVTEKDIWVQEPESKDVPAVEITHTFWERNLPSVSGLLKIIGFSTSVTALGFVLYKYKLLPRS
Further: assay procedure not described here.

Chain of Beta-1 adrenergic receptor (P08588 whole entry): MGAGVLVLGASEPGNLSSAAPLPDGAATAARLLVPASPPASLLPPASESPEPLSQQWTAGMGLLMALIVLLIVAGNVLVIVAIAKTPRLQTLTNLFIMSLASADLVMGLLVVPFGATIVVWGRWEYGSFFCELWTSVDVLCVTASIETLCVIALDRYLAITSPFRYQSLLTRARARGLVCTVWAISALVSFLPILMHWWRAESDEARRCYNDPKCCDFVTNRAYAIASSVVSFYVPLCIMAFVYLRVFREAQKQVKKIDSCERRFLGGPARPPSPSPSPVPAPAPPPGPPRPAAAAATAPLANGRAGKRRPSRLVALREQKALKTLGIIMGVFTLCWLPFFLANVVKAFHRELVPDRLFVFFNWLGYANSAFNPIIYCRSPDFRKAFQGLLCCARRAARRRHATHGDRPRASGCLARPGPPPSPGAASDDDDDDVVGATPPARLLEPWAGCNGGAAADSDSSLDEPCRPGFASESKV

Compound	AC50 [1]	AC50 [2]	AC50 [3]	AC50 (Cannabinoid receptor 1)	AC50 [4]	AC50 (Motilin receptor)	AC50 [5]	AC50 (Progesterone receptor)	AC50 [6]
COc1ccc(-n2nc(C(N)=O)c3c2C(=O)N(c2ccc(N4CCCCC4=O)cc2)CC3)cc1 [APIXABAN]	> 30 µM	> 30 µM	> 30 µM	> 30 µM	> 30 µM	> 30 µM	> 30 µM	> 30 µM	> 30 µM
CCN1C(=O)NC(c2ccccc2)C1=O (stereo unspecified) [ETHOTOIN]	> 30 µM	> 30 µM	> 30 µM	> 30 µM	> 30 µM	> 30 µM	> 30 µM	> 30 µM	> 30 µM
CO/N=C(\C(=O)N[C@@H]1C(=O)N2C(C(=O)[O-])=C(C[n+]3ccc(N)n3CCO)CS[C@H]12)c1csc(N)n1 [CEFOSELIS]	> 30 µM	> 30 µM	> 30 µM	> 30 µM	> 30 µM	> 30 µM	> 30 µM	> 30 µM	> 30 µM
CCCO[C@H]1[C@@H]([C@@H](COCc2ccc(Cl)cc2)OCc2ccc(Cl)cc2)OC(OCC)[C@@H]1O (stereo partly specified) [CLOBENOSIDE]	> 30 µM	> 30 µM	> 30 µM	> 30 µM	> 30 µM	> 30 µM	> 30 µM	22 µM	> 30 µM
COc1ccc(C(Cl)=C(c2ccc(OC)cc2)c2ccc(OC)cc2)cc1 [CHLOROTRIANISENE]	> 30 µM	> 30 µM	> 30 µM	> 30 µM	> 30 µM	> 30 µM	> 30 µM	> 30 µM	> 30 µM
C[C@@H](Cc1ccccc1)N(C)Cc1ccccc1 [BENZPHETAMINE]	> 10 µM	> 10 µM	> 10 µM	> 30 µM	> 10 µM	> 10 µM	> 10 µM	> 10 µM	> 10 µM
CC(=O)OCC1=C(C(=O)O)N2C(=O)[C@@H](NC(=O)Cc3cccs3)[C@H]2SC1 [CEPHALOTHIN]	> 30 µM	> 30 µM	> 30 µM	> 30 µM	> 30 µM	> 30 µM	> 30 µM	> 30 µM	> 30 µM
CCC(=O)O[C@H](CC(=O)O)C[N+](C)(C)C [LEVOCARNITINE PROPIONATE]	> 30 µM	> 30 µM	> 30 µM	> 30 µM	> 30 µM	> 30 µM	> 30 µM	> 30 µM	> 30 µM
O=C(O)c1nn(Cc2ccc(Cl)cc2Cl)c2ccccc12 [LONIDAMINE]	> 30 µM	> 30 µM	> 30 µM	> 30 µM	> 30 µM	> 30 µM	> 30 µM	> 30 µM	> 30 µM
CC(C)(C)NCC(O)COc1cccc2c1CC(O)C(O)C2 (stereo unspecified) [NADOLOL]	0.102 µM	> 10 µM	> 10 µM	> 30 µM	> 10 µM	> 10 µM	> 10 µM	> 10 µM	> 10 µM
CCN(CC)CCCN(c1ccccc1)C1Cc2ccccc2C1 [APRINDINE]	> 30 µM	> 30 µM	> 30 µM	> 30 µM	> 30 µM	> 30 µM	> 30 µM	> 30 µM	> 30 µM
CCCCOC(=O)c1ccc(N)cc1 [BUTAMBEN]	> 30 µM	> 30 µM	> 30 µM	> 30 µM	> 30 µM	> 30 µM	> 30 µM	> 30 µM	> 30 µM
CNCCc1ccccn1 [BETAHISTINE]		> 30 µM	> 30 µM	> 30 µM	> 30 µM	> 30 µM	> 30 µM	> 30 µM	> 30 µM
CN1CCC(=C2c3ccccc3CC(=O)c3sccc32)CC1 [KETOTIFEN]		> 10 µM	> 10 µM	> 30 µM	> 10 µM	> 10 µM	> 10 µM	> 10 µM	> 10 µM
CC(=O)N1CCN(c2ccc(OCC3COC(Cn4ccnc4)(c4ccc(Cl)cc4Cl)O3)cc2)CC1 (stereo unspecified) [KETOCONAZOLE]	> 10 µM	> 10 µM		> 30 µM	> 10 µM	> 10 µM	> 10 µM	> 10 µM	> 10 µM
CCc1ccc(C(=O)C(C)CN2CCCCC2)cc1 (stereo unspecified) [EPERISONE]	> 30 µM	> 30 µM	> 30 µM		> 30 µM	> 30 µM	> 30 µM	> 30 µM	> 30 µM
Nc1nc(Cl)nc2c1ncn2[C@@H]1O[C@H](CO)[C@@H](O)[C@@H]1F [CLOFARABINE]	> 30 µM	> 30 µM	> 10 µM		> 30 µM	> 30 µM	> 30 µM	> 30 µM	> 30 µM
CN(C)CCOC(=O)C(c1ccccc1)C1(O)CCCC1 (stereo unspecified) [CYCLOPENTOLATE]	> 10 µM	> 10 µM	> 10 µM		> 10 µM	> 10 µM	> 10 µM	> 10 µM	> 30 µM
